Patent publication US9302991B2, “Arylamide derivatives as TTX-S blockers” (RaQualia Pharma Inc., priority 2010, dated 2016)

Target: T1, human Nav1.7 channels (Homo sapiens, UniProt Q15858)
T1 construct: expressed in transfected cells; host or cells: CHO
Assay: FRET assay, human Nav1.7 (EFS on FDSS)
Type: cell-based
Settings: CHO cells expressing human Nav1.7, read-out: IC50 against Nav1.7
Summary of the method: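 CHO cells stably expressing the channel, loaded with CC2-DMPE (10 µM) then DiSBAC2(3) (15 µM) plus VABSC-1, in HEPES-buffered saline pH 7.4 at room temperature. Electrical field stimulation on FDSS; FRET ratio at 440 nm fitted for IC50.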

T1 sequence (Q15858 whole entry): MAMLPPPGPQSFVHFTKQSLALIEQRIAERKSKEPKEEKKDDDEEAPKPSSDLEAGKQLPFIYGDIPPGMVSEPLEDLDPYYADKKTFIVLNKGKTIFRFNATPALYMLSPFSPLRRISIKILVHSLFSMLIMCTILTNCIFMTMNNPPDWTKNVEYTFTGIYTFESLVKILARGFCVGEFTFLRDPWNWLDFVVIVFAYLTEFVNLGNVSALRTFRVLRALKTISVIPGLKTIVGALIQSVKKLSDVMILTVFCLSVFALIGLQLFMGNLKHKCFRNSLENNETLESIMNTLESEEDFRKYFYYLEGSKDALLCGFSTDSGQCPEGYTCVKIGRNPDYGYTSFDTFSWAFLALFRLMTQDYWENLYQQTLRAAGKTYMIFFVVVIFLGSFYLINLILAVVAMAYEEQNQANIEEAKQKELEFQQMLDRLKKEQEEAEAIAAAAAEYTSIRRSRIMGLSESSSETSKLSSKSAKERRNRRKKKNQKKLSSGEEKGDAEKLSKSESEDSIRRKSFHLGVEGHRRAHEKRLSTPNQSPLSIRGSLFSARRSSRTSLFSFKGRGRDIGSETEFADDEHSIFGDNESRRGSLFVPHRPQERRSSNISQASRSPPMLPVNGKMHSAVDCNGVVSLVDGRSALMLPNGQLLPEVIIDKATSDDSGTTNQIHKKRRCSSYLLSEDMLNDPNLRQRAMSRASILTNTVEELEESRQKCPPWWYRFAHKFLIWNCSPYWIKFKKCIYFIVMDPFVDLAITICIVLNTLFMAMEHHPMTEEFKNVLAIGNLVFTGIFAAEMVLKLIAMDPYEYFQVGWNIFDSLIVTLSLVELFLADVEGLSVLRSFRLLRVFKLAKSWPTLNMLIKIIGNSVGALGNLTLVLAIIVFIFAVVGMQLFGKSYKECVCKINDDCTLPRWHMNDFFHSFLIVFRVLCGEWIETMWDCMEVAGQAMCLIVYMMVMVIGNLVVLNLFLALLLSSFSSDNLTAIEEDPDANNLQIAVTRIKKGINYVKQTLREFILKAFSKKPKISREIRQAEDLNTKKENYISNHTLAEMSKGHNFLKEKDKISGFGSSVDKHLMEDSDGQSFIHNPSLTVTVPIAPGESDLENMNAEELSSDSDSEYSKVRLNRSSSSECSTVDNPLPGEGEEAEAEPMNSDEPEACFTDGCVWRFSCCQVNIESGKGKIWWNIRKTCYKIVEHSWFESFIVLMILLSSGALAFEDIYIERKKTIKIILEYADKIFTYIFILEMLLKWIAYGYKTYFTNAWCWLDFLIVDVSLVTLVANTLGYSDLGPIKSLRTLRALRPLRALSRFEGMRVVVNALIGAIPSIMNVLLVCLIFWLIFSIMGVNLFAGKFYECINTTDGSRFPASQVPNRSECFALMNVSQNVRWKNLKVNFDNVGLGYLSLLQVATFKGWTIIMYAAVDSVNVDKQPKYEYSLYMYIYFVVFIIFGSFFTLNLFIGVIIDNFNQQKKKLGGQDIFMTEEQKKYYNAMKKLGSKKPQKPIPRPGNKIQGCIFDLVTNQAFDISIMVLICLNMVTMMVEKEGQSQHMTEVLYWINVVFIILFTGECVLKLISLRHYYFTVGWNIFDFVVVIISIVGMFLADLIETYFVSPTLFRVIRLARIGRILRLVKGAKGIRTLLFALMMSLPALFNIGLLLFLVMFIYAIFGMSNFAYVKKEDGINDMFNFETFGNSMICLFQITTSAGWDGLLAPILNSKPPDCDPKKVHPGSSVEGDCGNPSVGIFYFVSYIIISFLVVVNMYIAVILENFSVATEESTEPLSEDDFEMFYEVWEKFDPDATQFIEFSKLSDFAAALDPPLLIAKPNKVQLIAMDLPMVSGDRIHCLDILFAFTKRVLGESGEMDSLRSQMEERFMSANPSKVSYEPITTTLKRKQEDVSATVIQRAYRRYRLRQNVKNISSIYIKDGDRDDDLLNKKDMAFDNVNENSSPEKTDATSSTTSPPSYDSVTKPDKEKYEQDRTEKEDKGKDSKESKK

IC50, < 1000 nM:
COc1cc(C(C)NC(=O)c2ccnc(NC(=O)C3CC3)n2)cnc1OCC(F)(F)F (single isomer, unassigned) [Example 400, 2-(cyclopropanecarboxamido)-N-(1-(5-methoxy-6-(2,2,2-trifluoroethoxy)pyridin-3-yl)ethyl)pyrimidine-4-carboxamide]
CCC(=O)Nc1cc(C(=O)NCc2cc(F)c(OCC(F)(F)F)nc2C)cc(C)n1 [Example 313, N-((5-fluoro-2-methyl-6-(2,2,2-trifluoroethoxy)pyridin-3-yl)methyl)-2-methyl-6-propionamidoisonicotinamide]
CCC(=O)Nc1cc(C(=O)NC(C)c2ccc(OCC(F)F)cc2Cl)ccn1 (single isomer, unassigned) [Example 1116, N-(1-(2-chloro-4-(2,2-difluoroethoxy)phenyl)ethyl)-2-propionamidoisonicotinamide]
CC(C)C(=O)Nc1cc(C(=O)NCc2cnc(OCC(F)(F)F)c(Br)c2)ccn1 [Example 897, N-((5-bromo-6-(2,2,2-trifluoroethoxy)pyridin-3-yl)methyl)-2-isobutyramidoisonicotinamide]
CCC(=O)Nc1cc(C(=O)NCc2cnc(OCC(F)F)c(Cl)c2)cc(C)n1 [Example 618, N-((5-chloro-6-(2,2-difluoroethoxy)pyridin-3-yl)methyl)-2-methyl-6-propionamidoisonicotinamide]
COc1nc(OCC(F)F)ccc1C(C)NC(=O)c1cc(C)nc(NC(=O)C(C)C)c1 (single isomer, unassigned) [Example 1166, N-(1-(6-(2,2-difluoroethoxy)-2-methoxypyridin-3-yl)ethyl)-2-isobutyramido-6-methylisonicotinamide]
CCOc1nc(OCC(F)(F)F)ccc1CNC(=O)c1cc(C)nc(NC(=O)CC)c1 [Example 334, N-((2-ethoxy-6-(2,2,2-trifluoroethoxy)pyridin-3-yl)methyl)-2-methyl-6-propionamidoisonicotinamide]
CC(C)C(=O)Nc1cc(C(=O)NC(C)c2cccc(SC(F)(F)F)c2)ccn1 (single isomer, unassigned) [Example 1030, 2-isobutyramido-N-(1-(3-((trifluoromethyl)thio)phenyl)ethyl)isonicotinamide]
Cc1cc(OCC(F)(F)F)ncc1CNC(=O)c1ccnc(NC(=O)C(C)C)c1 [Example 178, 2-isobutyramido-N-((4-methyl-6-(2,2,2-trifluoroethoxy)pyridin-3-yl)methyl)isonicotinamide]
CCc1cc(CNC(=O)c2ccnc(NC(=O)C(C)C)c2)cnc1OCC(F)F [Example 910, N-((6-(2,2-difluoroethoxy)-5-ethylpyridin-3-yl)methyl)-2-isobutyramidoisonicotinamide]
Cc1cc(CNC(=O)c2ccnc(NC(=O)C3CC3)c2)ccc1OCC(F)F [Example 990, 2-(cyclopropanecarboxamido)-N-(4-(2,2-difluoroethoxy)-3-methylbenzyl)isonicotinamide]
CCC(=O)Nc1cc(C(=O)NCc2ccc(OCC(F)F)nc2OC)ccn1 [Example 1152, N-((6-(2,2-difluoroethoxy)-2-methoxypyridin-3-yl)methyl)-2-propionamidoisonicotinamide]
CC(=O)Nc1cc(C(=O)N(C)C(C)c2cnc(OCC(F)(F)F)c(C)c2)ccn1 (single isomer, unassigned) [Example 392, 2-acetamido-N-methyl-N-(1-(5-methyl-6-(2,2,2-trifluoroethoxy)pyridin-3-yl)ethyl)isonicotinamide]
COc1cc(CNC(=O)c2ccnc(NC(C)=O)c2)ccc1OCC(F)(F)F [Example 1078, 2-acetamido-N-(3-methoxy-4-(2,2,2-trifluoroethoxy)benzyl)isonicotinamide]
COc1cc(CNC(=O)c2cc(C)nc(NC(C)=O)c2)cnc1OCC(F)(F)F [Example 272, 2-acetamido-N-((5-methoxy-6-(2,2,2-trifluoroethoxy)pyridin-3-yl)methyl)-6-methylisonicotinamide]
CCC(=O)Nc1cc(C(=O)NCc2ccc(OCC(F)(F)F)nc2N2CCCCC2)cc(C)n1 [Example 306, 2-methyl-N-((2-(piperidin-1-yl)-6-(2,2,2-trifluoroethoxy)pyridin-3-yl)methyl)-6-propionamidoisonicotinamide]
CC(C)C(=O)Nc1cc(C(=O)NCc2ccc(OCC(F)(F)F)nc2N2CCCCC2)ccn1 [Example 305, 2-isobutyramido-N-((2-(piperidin-1-yl)-6-(2,2,2-trifluoroethoxy)pyridin-3-yl)methyl)isonicotinamide]
CC(C)C(=O)Nc1nccc(C(=O)NC(C)c2cnc(OCC(F)(F)F)c(Cl)c2)n1 (single isomer, unassigned) [Example 212, N-(1-(5-chloro-6-(2,2,2-trifluoroethoxy)pyridin-3-yl)ethyl)-2-isobutyramidopyrimidine-4-carboxamide]
Cc1cc(C(=O)NC(C)c2ccc(OCC(F)(F)F)cc2Cl)cc(NC(=O)C(C)C)n1 (single isomer, unassigned) [Example 801, N-(1-(2-chloro-4-(2,2,2-trifluoroethoxy)phenyl)ethyl)-2-isobutyramido-6-methylisonicotinamide]
CCCC(=O)Nc1cc(C(=O)NC(C)c2ccc(OCC(F)(F)F)nc2)ccn1 (single isomer, unassigned) [Example 40, 2-butyramido-N-(1-(6-(2,2,2-trifluoroethoxy)pyridin-3-yl)ethyl)isonicotinamide]
O=C(NCc1cnc(OCC(F)F)c(Cl)c1)c1ccnc(NC(=O)C2CC2)c1 [Example 705, N-((5-chloro-6-(2,2-difluoroethoxy)pyridin-3-yl)methyl)-2-(cyclopropanecarboxamido)isonicotinamide]
CCC(=O)Nc1cc(C(=O)NC(C)c2ccc(OCC(C)(F)F)nc2)ccn1 (single isomer, unassigned) [Example 781, N-(1-(6-(2,2-difluoropropoxy)pyridin-3-yl)ethyl)-2-propionamidoisonicotinamide]
CC(C)C(=O)Nc1cc(C(=O)NC(C)c2ccc(OCCC(F)(F)F)nc2)ccn1 (single isomer, unassigned) [Example 186, 2-isobutyramido-N-(1-(6-(3,3,3-trifluoropropoxy)pyridin-3-yl)ethyl)isonicotinamide]
O=C(NCc1ccc(OCC(F)(F)C(F)F)nc1)c1ccnc(NC(=O)C2CC2)c1 [Example 635, 2-(cyclopropanecarboxamido)-N-((6-(2,2,3,3-tetrafluoropropoxy)pyridin-3-yl)methyl)isonicotinamide]
CCc1cc(CNC(=O)c2ccnc(NC(=O)C3CC3)c2)cnc1OCC(F)F [Example 931, 2-(cyclopropanecarboxamido)-N-((6-(2,2-difluoroethoxy)-5-ethylpyridin-3-yl)methyl)isonicotinamide]
CC(NC(=O)c1ccnc(NC(=O)C2CC2)n1)c1ccc(OCC(F)(F)F)cc1Cl (single isomer, unassigned) [Example 802, N-(1-(2-chloro-4-(2,2,2-trifluoroethoxy)phenyl)ethyl)-2-(cyclopropanecarboxamido)pyrimidine-4-carboxamide]
CC(=O)Nc1cc(C(=O)NC(C)c2cc(C)nc(OCC(F)(F)F)c2)ccn1 (single isomer, unassigned) [Example 73, 2-acetamido-N-(1-(2-methyl-6-(2,2,2-trifluoroethoxy)pyridin-4-yl)ethyl)isonicotinamide]
Cc1cc(C(=O)NC(C)c2ccc(OCC(F)F)c(C)c2)cc(NC(=O)C2CC2)n1 (single isomer, unassigned) [Example 866, 2-(cyclopropanecarboxamido)-N-(1-(4-(2,2-difluoroethoxy)-3-methylphenyl)ethyl)-6-methylisonicotinamide]
CCC(=O)Nc1cc(C(=O)NCc2ccc(O[C@H](C)C(F)(F)F)nc2)ccn1 (single isomer, unassigned) [Example 316]
CC(C)C(=O)Nc1cc(C(=O)NC(C)c2cccc(OCC(F)(F)F)c2)ccn1 (single isomer, unassigned) [Example 561, 2-isobutyramido-N-(1-(3-(2,2,2-trifluoroethoxy)phenyl)ethyl)isonicotinamide]
Cc1cc(C(=O)NC(C)c2cc(C)c(OCC(F)F)c(Cl)c2)cc(NC(=O)C(C)C)n1 (single isomer, unassigned) [Example 1212, N-(1-(3-chloro-4-(2,2-difluoroethoxy)-5-methylphenyl)ethyl)-2-isobutyramido-6-methylisonicotinamide]
COc1nc(OCC(F)(F)F)ccc1CNC(=O)c1cc(C)nc(NC(=O)C2CC2)n1 [Example 181, 2-(cyclopropanecarboxamido)-N-((2-methoxy-6-(2,2,2-trifluoroethoxy)pyridin-3-yl)methyl)-6-methylpyrimidine-4-carboxamide]
O=C(NCc1ccc(OCC(F)(F)C(F)F)nc1)c1ccnc(NC(=O)C2CC2)n1 [Example 651, 2-(cyclopropanecarboxamido)-N-((6-(2,2,3,3-tetrafluoropropoxy)pyridin-3-yl)methyl)pyrimidine-4-carboxamide]
